Laboratory results published in patent US11377469B2, “CD73 inhibitors” (ORIC Pharmaceuticals, Inc., priority 2017, dated 2022).

biological target: CD73 (Homo sapiens (Human), UniProt P21589); assay: Biochemical Assay (CD73 inhibition, AMP hydrolysis, Malachite Green readout); settings: CD73 0.3208 nM, AMP 15 μM, Tris-HCl pH 7.4, Malachite Green absorbance
Procedure: Example A1: Biochemical Assay
Assay Reaction Conditions
• Assay Volume: 70 μl • Reaction Volume: 50 μl • CD73: 0.3208 nM • AMP: 15 μM • Assay Buffer: 2 5 mM Tris-HCL, pH 7.4, 0.01% Brij-35, 0.01% BSA, 5 mM MgCl2 Assay Procedure:
Made dose titration of testing compounds in assay buffer, 10 points ½ log titrations in duplicates starting at 100 μM.
Added 25 μl of CD73 to each well for a final concentration of 320 pM.
Incubated at RT for 15 min.
Added 25 μl of AMP to each well for a final concentration of 15 μM.
Incubated at RT for 10 min.
Added 10 μl of Malachite Green Reagent A, incubate at RT for 10 min.
Added 10 μl of Malachite Green Reagent B, incubate at RT for 45 min. […]
The ability of the compounds disclosed herein to inhibit CD73 activity was quantified and the respective IC50 values were determined. Table 1 provides the biochemical IC50 values of compounds disclosed herein.

Chain of CD73 (P21589 27-574): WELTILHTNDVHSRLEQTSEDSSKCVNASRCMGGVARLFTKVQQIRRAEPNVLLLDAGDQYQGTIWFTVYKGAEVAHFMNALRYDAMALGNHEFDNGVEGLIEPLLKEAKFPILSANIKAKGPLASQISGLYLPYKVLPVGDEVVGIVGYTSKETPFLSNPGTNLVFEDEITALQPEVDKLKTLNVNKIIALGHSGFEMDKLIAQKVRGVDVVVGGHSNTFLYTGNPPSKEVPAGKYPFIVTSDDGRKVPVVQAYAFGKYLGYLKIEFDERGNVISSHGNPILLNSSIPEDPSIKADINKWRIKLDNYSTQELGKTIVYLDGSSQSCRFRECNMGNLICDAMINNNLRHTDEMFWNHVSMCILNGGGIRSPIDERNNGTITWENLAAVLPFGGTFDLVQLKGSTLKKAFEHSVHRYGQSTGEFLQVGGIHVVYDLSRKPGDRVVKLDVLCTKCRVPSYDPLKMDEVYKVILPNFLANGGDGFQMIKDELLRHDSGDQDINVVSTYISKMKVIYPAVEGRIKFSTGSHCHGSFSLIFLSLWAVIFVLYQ

Structure (SMILES) | IC50
CN(Cc1cccc(Cl)c1)c1nc(Cl)nc2c1nnn2[C@@H]1O[C@H](COCP(=O)(O)O)[C@@H](O)[C@H]1O [Example 39, ((((2R,3S,4R,5R)-5-(5-chloro-7-((3-chlorobenzyl)(methyl)amino)-3H-[1,2,3]triazolo[4,5-d]pyrimidin-3-yl)-3,4-dihydroxytetrahydrofuran-2-yl)methoxy)methyl)phosphonic acid] | ≤ 0.5 µM
O=P(O)(O)COC[C@H]1O[C@@H](n2ccc3c(NCc4ccccc4Cl)nc(Cl)nc32)[C@H](O)[C@@H]1O [Example 40, ((((2R,3S,4R,5R)-5-(2-chloro-4-((2-chlorobenzyl)amino)-7H-pyrrolo[2,3-d]pyrimidin-7-yl)-3,4-dihydroxytetrahydrofuran-2-yl)methoxy)methyl)phosphonic acid] | ≤ 0.5 µM
O=P(O)(O)COC[C@H]1O[C@@H](n2ncc3c(N4CCOCC4)nc(Cl)nc32)[C@H](O)[C@@H]1O [Example 42, ((((2R,3S,4R,5R)-5-(6-chloro-4-morpholino-1H-pyrazolo[3,4-d]pyrimidin-1-yl)-3,4-dihydroxytetrahydrofuran-2-yl)methoxy)methyl)phosphonic acid] | ≤ 0.5 µM
O=P(O)(O)COC[C@H]1O[C@@H](n2ncc3c(NC[C@H]4CCOC4)nc(Cl)nc32)[C@H](O)[C@@H]1O [Example 45, ((((2R,3S,4R,5R)-5-(6-chloro-4-((((R)-tetrahydrofuran-3-yl)methyl)amino)-1H-pyrazolo[3,4-d]pyrimidin-1-yl)-3,4-dihydroxytetrahydrofuran-2-yl)methoxy)methyl)phosphonic acid] | ≤ 0.5 µM
C[C@H](OCP(=O)(O)O)[C@H]1O[C@@H](n2ncc3c(NCc4ccccc4Cl)nc(Cl)nc32)[C@H](O)[C@@H]1O [Example 50, (((S)-1-((2S,3S,4R,5R)-5-(6-chloro-4-((2-chlorobenzyl)amino)-1H-pyrazolo[3,4-d]pyrimidin-1-yl)-3,4-dihydroxytetrahydrofuran-2-yl)ethoxy)methyl)phosphonic acid] | > 1 µM
CN(c1nc(Cl)nc2c1cnn2[C@@H]1O[C@H](COCP(=O)(O)O)[C@@H](O)[C@H]1O)C1CCCC1 [Example 53, ((((2R,3S,4R,5R)-5-(6-chloro-4-(cyclopentyl(methyl)amino)-1H-pyrazolo[3,4-d]pyrimidin-1-yl)-3,4-dihydroxytetrahydrofuran-2-yl)methoxy)methyl)phosphonic acid] | ≤ 0.5 µM
CC(C)COc1nc(NCc2cccc(Cl)c2)c2cnn([C@@H]3O[C@H](COCP(=O)(O)O)[C@@H](O)[C@H]3O)c2n1 [Example 54, ((((2R,3S,4R,5R)-5-(4-((3-chlorobenzyl)amino)-6-isobutoxy-1H-pyrazolo[3,4-d]pyrimidin-1-yl)-3,4-dihydroxytetrahydrofuran-2-yl)methoxy)methyl)phosphonic acid] | > 1 µM
O=P(O)(O)COC[C@H]1O[C@@H](n2ncc3c(NCc4cccc(Cl)c4)nc(N4CCCC4)nc32)[C@H](O)[C@@H]1O [Example 55, ((((2R,3S,4R,5R)-5-(4-((3-chlorobenzyl)amino)-6-(pyrrolidin-1-yl)-1H-pyrazolo[3,4-d]pyrimidin-1-yl)-3,4-dihydroxytetrahydrofuran-2-yl)methoxy)methyl)phosphonic acid] | > 1 µM
Nc1nc(Cl)nc2c1cnn2[C@@H]1O[C@H](COCP(=O)(O)O)[C@@H](O)[C@H]1O [Example 57, ((((2R,3S,4R,5R)-5-(4-amino-6-chloro-1H-pyrazolo[3,4-d]pyrimidin-1-yl)-3,4-dihydroxytetrahydrofuran-2-yl)methoxy)methyl)phosphonic acid] | 0.5 to 1 µM
CN(Cc1ccccc1Cl)c1nc(Cl)nc2c1nnn2[C@@H]1O[C@H](COCP(=O)(O)O)[C@@H](O)[C@H]1O [Example 59, ((((2R,3S,4R,5R)-5-(5-chloro-7-((2-chlorobenzyl)(methyl)amino)-3H-[1,2,3]triazolo[4,5-d]pyrimidin-3-yl)-3,4-dihydroxytetrahydrofuran-2-yl)methoxy)methyl)phosphonic acid] | ≤ 0.5 µM
C[C@@H](OCP(=O)(O)O)[C@H]1O[C@@H](n2ncc3c(NCc4ccccc4Cl)nc(Cl)nc32)[C@H](O)[C@@H]1O [Example 60, (((R)-1-((2S,3S,4R,5R)-5-(6-chloro-4-((2-chlorobenzyl)amino)-1H-pyrazolo[3,4-d]pyrimidin-1-yl)-3,4-dihydroxytetrahydrofuran-2-yl)ethoxy)methyl)phosphonic acid] | > 1 µM
O=P(O)(O)CS(=O)(=O)C[C@H]1O[C@@H](n2ncc3c(NCc4cccc(Cl)c4)nc(Cl)nc32)[C@H](O)[C@@H]1O [Example 61, (((((2S,3S,4R,5R)-5-(6-chloro-4-((3-chlorobenzyl)amino)-1H-pyrazolo[3,4-d]pyrimidin-1-yl)-3,4-dihydroxytetrahydrofuran-2-yl)methyl)sulfonyl)methyl)phosphonic acid] | ≤ 0.5 µM
O=P(O)(O)CS(=O)(=O)C[C@H]1O[C@@H](n2ncc3c(NCC4CC4)nc(Cl)nc32)[C@H](O)[C@@H]1O [Example 62] | ≤ 0.5 µM
CN(Cc1ccccc1Cl)c1nc(Cl)nc2c1cnn2[C@@H]1O[C@H](COCP(=O)(O)O)[C@@H](O)[C@H]1O [Example 64, ((((2R,3S,4R,5R)-5-(6-chloro-4-((2-chlorobenzyl)(methyl)amino)-1H-pyrazolo[3,4-d]pyrimidin-1-yl)-3,4-dihydroxytetrahydrofuran-2-yl)methoxy)methyl)phosphonic acid] | 0.5 to 1 µM

Now from value to compound:

IC50 | Structure (SMILES)
≤ 0.5 µM | Cc1cccc(CNc2nc(Cl)nc3c2cnn3[C@@H]2O[C@H](COCP(=O)(O)O)[C@@H](O)[C@H]2O)c1 [Example 41, ((((2R,3S,4R,5R)-5-(6-chloro-4-((3-methylbenzyl)amino)-1H-pyrazolo[3,4-d]pyrimidin-1-yl)-3,4-dihydroxytetrahydrofuran-2-yl)methoxy)methyl)phosphonic acid]
≤ 0.5 µM | CCNc1nc(Cl)nc2c1cnn2[C@@H]1O[C@H](COCP(=O)(O)O)[C@@H](O)[C@H]1O [Example 43, ((((2R,3S,4R,5R)-5-(6-chloro-4-(ethylamino)-1H-pyrazolo[3,4-d]pyrimidin-1-yl)-3,4-dihydroxytetrahydrofuran-2-yl)methoxy)methyl)phosphonic acid]
> 1 µM | Cc1nc(NCc2cccc(Cl)c2)c2cnn([C@@H]3O[C@H](COCP(=O)(O)O)[C@@H](O)[C@H]3O)c2n1 [Example 44, ((((2R,3S,4R,5R)-5-(4-((3-chlorobenzyl)amino)-6-methyl-1H-pyrazolo[3,4-d]pyrimidin-1-yl)-3,4-dihydroxytetrahydrofuran-2-yl)methoxy)methyl)phosphonic acid]
≤ 0.5 µM | N#Cc1cccc(CNc2nc(Cl)nc3c2cnn3[C@@H]2O[C@H](COCP(=O)(O)O)[C@@H](O)[C@H]2O)c1 [Example 46, ((((2R,3S,4R,5R)-5-(6-chloro-4-((3-cyanobenzyl)amino)-1H-pyrazolo[3,4-d]pyrimidin-1-yl)-3,4-dihydroxytetrahydrofuran-2-yl)methoxy)methyl)phosphonic acid]
≤ 0.5 µM | Cn1ncc2cccc(CNc3nc(Cl)nc4c3cnn4[C@@H]3O[C@H](COCP(=O)(O)O)[C@@H](O)[C@H]3O)c21 [Example 48, ((((2R,3S,4R,5R)-5-(6-chloro-4-(((1-methyl-1H-indazol-7-yl)methyl)amino)-1H-pyrazolo[3,4-d]pyrimidin-1-yl)-3,4-dihydroxytetrahydrofuran-2-yl)methoxy)methyl)phosphonic acid]
≤ 0.5 µM | O=P(O)(O)COC[C@H]1O[C@@H](n2ncc3c(NCc4cccc5ccccc45)nc(Cl)nc32)[C@H](O)[C@@H]1O [Example 49, ((((2R,3S,4R,5R)-5-(6-chloro-4-((naphthalen-1-ylmethyl)amino)-1H-pyrazolo[3,4-d]pyrimidin-1-yl)-3,4-dihydroxytetrahydrofuran-2-yl)methoxy)methyl)phosphonic acid]
≤ 0.5 µM | O=P(O)(O)COC[C@H]1O[C@@H](n2ncc3c(NCc4cccc5ncccc45)nc(Cl)nc32)[C@H](O)[C@@H]1O [Example 51, ((((2R,3S,4R,5R)-5-(6-chloro-4-((quinolin-5-ylmethyl)amino)-1H-pyrazolo[3,4-d]pyrimidin-1-yl)-3,4-dihydroxytetrahydrofuran-2-yl)methoxy)methyl)phosphonic acid]
> 1 µM | CNc1nc(NCc2cccc(Cl)c2)c2cnn([C@@H]3O[C@H](COCP(=O)(O)O)[C@@H](O)[C@H]3O)c2n1 [Example 56, ((((2R,3S,4R,5R)-5-(4-((3-chlorobenzyl)amino)-6-(methylamino)-1H-pyrazolo[3,4-d]pyrimidin-1-yl)-3,4-dihydroxytetrahydrofuran-2-yl)methoxy)methyl)phosphonic acid]
≤ 0.5 µM | O=P(O)(O)COC[C@H]1O[C@@H](n2ncc3c(NCc4cccc(Cl)c4F)nc(Cl)nc32)[C@H](O)[C@@H]1O [Example 58, ((((2R,3S,4R,5R)-5-(6-chloro-4-((3-chloro-2-fluorobenzyl)amino)-1H-pyrazolo[3,4-d]pyrimidin-1-yl)-3,4-dihydroxytetrahydrofuran-2-yl)methoxy)methyl)phosphonic acid]
≤ 0.5 µM | CC(C)CNc1nc(Cl)nc2c1cnn2[C@@H]1O[C@H](COCP(=O)(O)O)[C@@H](O)[C@H]1O [Example 63, ((((2R,3S,4R,5R)-5-(6-chloro-4-(isobutylamino)-1H-pyrazolo[3,4-d]pyrimidin-1-yl)-3,4-dihydroxytetrahydrofuran-2-yl)methoxy)methyl)phosphonic acid]
